Measured values taken from the supplement of paper PMC11451515.

Legend:
Experiment in all cases: AUC of viability dose-response curve (% viability x log10 dose units); higher = less sensitive
Conditions in all cases: 48 h
NOMO1 = system: NOMO1
How it was run: (§1)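 In 1536-well plates, leukemia cells adapted to each medium (500 or 1000 cells/well) were exposed for 48 h at 37°C to library compounds in DMSO across 11 threefold doses, 47 μM down to 0.79 nM. Viability was read by CellTiter-Glo One luminescence and normalised per plate to DMSO and cell-free wells. A four-parameter log-logistic fit over log10 doses was integrated by trapezoidal rule. This yielded the area under the curve, with over-full-viability curves scaled and quality-control failures dropped.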

P12-Ichikawa = system: P12-Ichikawa
How it was run: as §1

SEM cells = system: SEM cells
How it was run: as §1

[1] = RPMI 5 mM glucose + 10% dialyzed FBS

SMILES | AUC of viability dose-response curve (NOMO1; HPLM + 10% dialyzed FBS) | AUC of viability dose-response curve (NOMO1; RPMI 5 mM glucose + 10% FBS) | AUC of viability dose-response curve (NOMO1; [1]) | AUC of viability dose-response curve (P12-Ichikawa; HPLM + 10% dialyzed FBS) | AUC of viability dose-response curve (P12-Ichikawa; RPMI 5 mM glucose + 10% FBS) | AUC of viability dose-response curve (P12-Ichikawa; [1]) | AUC of viability dose-response curve (SEM cells; HPLM + 10% dialyzed FBS) | AUC of viability dose-response curve (SEM cells; RPMI 5 mM glucose + 10% FBS) | AUC of viability dose-response curve (SEM cells; [1])
Cn1c(=O)c2c(ncn2C)n(C)c1=O.O=C(O)CC(O)(CC(=O)O)C(=O)O | 439 | 465 | 455 | 459 | 462 | 472 | 472 | 456 | 475
C#Cc1cccc(Nc2ncnc3cc(OCCOC)c(OCCOC)cc23)c1 | 433 | 440 | 400 | 445 | 421 | 418 | 425 | 453 | 390
CCCc1nc(C(C)(C)O)c(C(=O)O)n1Cc1ccc(-c2ccccc2-c2nn[nH]n2)cc1 | 439 | 454 | 461 | 448 | 452 | 413 | – | – | –
CC1CCC(C(=O)N(c2cc(C#CC(C)(C)C)sc2C(=O)O)C2CCC(O)CC2)CC1 (stereo not given) | 410 | 408 | 411 | 419 | 394 | 375 | 426 | 430 | 400
c1cncc(CN2CCC(n3ncc4c(N5CCOCC5)nc(-c5ccc6[nH]ccc6c5)nc43)CC2)c1 | 374 | 372 | 362 | 426 | 351 | 357 | 376 | 370 | 352
CC[C@H](CC[C@@H](C)[C@H]1CC[C@H]2[C@@H]3C\C=C/4C[C@@H](O)CC[C@]4(C)[C@H]3CC[C@]12C)C(C)C | 420 | 449 | 431 | 448 | 453 | 446 | 452 | 469 | 467
O=C([O-])C(O)Cc1ccc(O)c(O)c1 (stereo not given) | 447 | 416 | 434 | 453 | 452 | 438 | 398 | 413 | 387
[NH2][Pt]1([NH2])[O]CC(=O)[O]1 | 462 | 429 | 432 | 467 | 463 | 439 | 455 | 464 | 407
Cc1ccccc1C(C(=O)NC1CCCCC1)N(C(=O)Cn1ccnc1C)c1cccc(F)c1 (stereo not given) | 452 | 456 | 455 | 442 | 461 | 466 | 449 | 462 | 438
COc1c(C)cnc(Cn2cnc3c(Cl)nc(N)nc32)c1C | 322 | 324 | 323 | 376 | 334 | 340 | 306 | 293 | 306
CC(=O)Nc1ccc(OC[C@](C)(O)C(=O)Nc2ccc([N+](=O)[O-])c(C(F)(F)F)c2)cc1 | 375 | 388 | 404 | 416 | 384 | 383 | 346 | 399 | 411
Nc1ccccc1NC(=O)c1ccc(CNC(=O)OCc2cccnc2)cc1 | 326 | 351 | 334 | 350 | 354 | 347 | 313 | 308 | 310
CCC(C)SSc1ncc[nH]1 (stereo not given) | 416 | 426 | 432 | 441 | 418 | 393 | 377 | 361 | 323
Cl.Cl.Cl.O[C@@H](COc1cccc2ncccc12)CN1CCN([C@@H]2c3ccccc3[C@@H]3[C@H](c4ccccc42)C3(F)F)CC1 | 404 | 397 | 401 | 418 | 391 | 395 | 421 | 418 | 449
CC1(C)O[C@@H]2C[C@H]3[C@@H]4CCC5=CC(=O)C=C[C@]5(C)[C@@]4(F)[C@@H](O)C[C@]3(C)[C@]2(C(=O)CO)O1 | 411 | 418 | 456 | 315 | 288 | 288 | 255 | 270 | 280
CN[S+](=O)([O-])Cc1ccc2[nH]cc(CCN(C)C)c2c1 | 454 | 443 | 454 | 467 | 457 | 460 | 442 | 431 | 456
Oc1ccc2c3c1O[C@H]1c4[nH]c5c(c4C[C@@]4(O)[C@@H](C2)N(CC2CC2)CC[C@]314)C[C@@]1(O)[C@H]2Cc3ccc(O)c4c3[C@@]1(CCN2CC1CC1)[C@H]5O4 | 448 | 443 | 472 | 463 | 440 | 428 | 422 | 429 | 454
CC(=O)O.Cc1c(-c2ccc(O)cc2)n(Cc2ccc(OCCN3CCCCCC3)cc2)c2ccc(O)cc12 | 472 | 446 | 469 | 472 | 459 | 446 | 449 | 423 | 418
CC(=O)O[C@H]1C(=O)[C@]2(C)[C@@H](O)C[C@H]3OC[C@@]3(OC(C)=O)C2[C@H](OC(=O)C4=CC=CC=C4)[C@]5(O)C[C@H](OC(=O)[C@H](O)[C@@H](NC(=O)C6=CC=CC=C6)C7=CC=CC=C7)\C(=C1/C5(C)C)C (stereo not given in full) | – | – | – | 148 | 143 | 195 | – | – | –
C/C=C1\NC(=O)[C@H]2CSSCC/C=C\[C@H](CC(=O)N[C@H](C(C)C)C(=O)N2)OC(=O)[C@H](C(C)C)NC1=O | 182 | 181 | 189 | 175 | 174 | 176 | 166 | 170 | 162
OC(=O)C1=CC=C(NC2=NC3=C(C\N=C(/C4=CC(=CC=C34)Cl)C5=C(F)C=CC=C5F)C=N2)C=C1 | 394 | 343 | 362 | 344 | 345 | 353 | 389 | 373 | 365
